# How the values were obtained:
# Assay in all cases: relative viability (nuclei count vs DMSO), 5 days (fraction); higher = more cells survive
# NCI-H1975 = tested on: NCI-H1975
# Method in brief: (§1)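 Cells from lung cancer lines were seeded into 1536-well plates and, one day later, dosed by pin tool. Treatments were either a single drug or a fixed dose of an anchor drug with five library-drug doses (not always all listed) in √10 steps. After 5 days, nuclei were stained in a one-step fixation (final 0.05% Triton X-100, 1% formaldehyde, 1 ug/ml Hoechst) and counted on 4× images, and relative viability is the treated-to-vehicle nuclei ratio, as the median of duplicate plates.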
# NCI-H2126 = tested on: NCI-H2126
# Method in brief: as §1
# NCI-H2023 = tested on: NCI-H2023
# Method in brief: as §1
# LXF-289 = tested on: LXF-289
# Method in brief: as §1
# NCI-H1915 = tested on: NCI-H1915
# Method in brief: as §1
# NCI-H358 = tested on: NCI-H358
# Method in brief: as §1
# HCC-78 = tested on: HCC-78
# Method in brief: as §1
# NCI-H322M = tested on: NCI-H322M
# Method in brief: as §1
# NCI-H1755 = tested on: NCI-H1755
# Method in brief: as §1
# ChaGo-K-1 = tested on: ChaGo-K-1
# Method in brief: as §1
# NCI-H1666 = tested on: NCI-H1666
# Method in brief: as §1
# ABC-1 = tested on: ABC-1
# Method in brief: as §1
# NCI-H3122 = tested on: NCI-H3122
# Method in brief: as §1
# COR-L 105 = tested on: COR-L 105
# Method in brief: as §1
# UMC-11 = tested on: UMC-11
# Method in brief: as §1
# NCI-H2085 = tested on: NCI-H2085
# Method in brief: as §1
# HCC-15 = tested on: HCC-15
# Method in brief: as §1
# HOP-62 = tested on: HOP-62
# Method in brief: as §1
# EPLC-272H = tested on: EPLC-272H
# Method in brief: as §1
# NCI-H441 = tested on: NCI-H441
# Method in brief: as §1
# CAL-12T = tested on: CAL-12T
# Method in brief: as §1
# EMC-BAC-2 = tested on: EMC-BAC-2
# Method in brief: as §1
compound,measurement,setting,value
Cc1sc2c(c1C)C(c1ccc(Cl)cc1)=N[C@@H](CC(=O)OC(C)(C)C)c1nnc(C)n1-2 [JQ1] + O=C(CCCCCCC(=O)Nc1ccccc1)NO [Vorinostat] (partner 1 µM),relative viability,NCI-H1975; first compound 0.04 µM,0.729
same,relative viability,NCI-H1975; first compound 0.1265 µM,0.6
same,relative viability,NCI-H1975; first compound 0.4 µM,0.64
same,relative viability,NCI-H1975; first compound 1.265 µM,0.325
same,relative viability,NCI-H1975; first compound 4 µM,0.263
same,relative viability,NCI-H2126; first compound 0.04 µM,0.725
same,relative viability,NCI-H2126; first compound 0.1265 µM,0.767
same,relative viability,NCI-H2126; first compound 0.4 µM,0.583
same,relative viability,NCI-H2126; first compound 1.265 µM,0.382
same,relative viability,NCI-H2126; first compound 4 µM,0.346
same,relative viability,NCI-H2023; first compound 0.04 µM,0.6
same,relative viability,NCI-H2023; first compound 0.1265 µM,0.372
same,relative viability,NCI-H2023; first compound 0.4 µM,0.44
same,relative viability,NCI-H2023; first compound 1.265 µM,0.156
same,relative viability,NCI-H2023; first compound 4 µM,0.106
same,relative viability,LXF-289; first compound 0.04 µM,0.765
same,relative viability,LXF-289; first compound 0.1265 µM,0.693
same,relative viability,LXF-289; first compound 0.4 µM,0.665
same,relative viability,LXF-289; first compound 1.265 µM,0.582
same,relative viability,LXF-289; first compound 4 µM,0.577
same,relative viability,NCI-H1915; first compound 0.04 µM,0.508
same,relative viability,NCI-H1915; first compound 0.4 µM,0.519
same,relative viability,NCI-H1915; first compound 1.265 µM,0.299
same,relative viability,NCI-H1915; first compound 4 µM,0.203
same,relative viability,NCI-H358; first compound 0.04 µM,0.662
same,relative viability,NCI-H358; first compound 0.1265 µM,0.628
same,relative viability,NCI-H358; first compound 0.4 µM,0.533
same,relative viability,NCI-H358; first compound 1.265 µM,0.161
same,relative viability,NCI-H358; first compound 4 µM,0.134
same,relative viability,HCC-78; first compound 0.04 µM,0.436
same,relative viability,HCC-78; first compound 0.1265 µM,0.398
same,relative viability,HCC-78; first compound 0.4 µM,0.466
same,relative viability,HCC-78; first compound 1.265 µM,0.312
same,relative viability,HCC-78; first compound 4 µM,0.329
same,relative viability,NCI-H322M; first compound 0.04 µM,0.853
same,relative viability,NCI-H322M; first compound 0.1265 µM,1.12
same,relative viability,NCI-H322M; first compound 0.4 µM,0.687
same,relative viability,NCI-H322M; first compound 1.265 µM,0.55
same,relative viability,NCI-H322M; first compound 4 µM,0.465
same,relative viability,NCI-H1755; first compound 0.04 µM,0.822
same,relative viability,NCI-H1755; first compound 0.1265 µM,0.579
same,relative viability,NCI-H1755; first compound 0.4 µM,0.693
same,relative viability,NCI-H1755; first compound 1.265 µM,0.651
same,relative viability,NCI-H1755; first compound 4 µM,0.552
same,relative viability,ChaGo-K-1; first compound 0.04 µM,0.752
same,relative viability,ChaGo-K-1; first compound 0.1265 µM,0.57
same,relative viability,ChaGo-K-1; first compound 0.4 µM,0.639
same,relative viability,ChaGo-K-1; first compound 1.265 µM,0.505
same,relative viability,ChaGo-K-1; first compound 4 µM,0.491
same,relative viability,NCI-H1666; first compound 0.04 µM,0.972
same,relative viability,NCI-H1666; first compound 0.1265 µM,0.944
same,relative viability,NCI-H1666; first compound 0.4 µM,0.988
same,relative viability,NCI-H1666; first compound 1.265 µM,0.823
same,relative viability,NCI-H1666; first compound 4 µM,0.788
same,relative viability,ABC-1; first compound 0.04 µM,0.963
same,relative viability,ABC-1; first compound 0.1265 µM,0.557
same,relative viability,ABC-1; first compound 0.4 µM,0.703
same,relative viability,ABC-1; first compound 1.265 µM,0.41
same,relative viability,ABC-1; first compound 4 µM,0.296
same,relative viability,NCI-H3122; first compound 0.04 µM,1.01
same,relative viability,NCI-H3122; first compound 0.1265 µM,0.506
same,relative viability,NCI-H3122; first compound 0.4 µM,1.02
same,relative viability,NCI-H3122; first compound 1.265 µM,1.04
same,relative viability,NCI-H3122; first compound 4 µM,0.664
same,relative viability,COR-L 105; first compound 0.04 µM,0.743
same,relative viability,COR-L 105; first compound 0.1265 µM,0.773
same,relative viability,COR-L 105; first compound 0.4 µM,0.621
same,relative viability,COR-L 105; first compound 1.265 µM,0.338
same,relative viability,COR-L 105; first compound 4 µM,0.338
same,relative viability,UMC-11; first compound 0.04 µM,0.326
same,relative viability,UMC-11; first compound 0.1265 µM,0.317
same,relative viability,UMC-11; first compound 0.4 µM,0.223
same,relative viability,UMC-11; first compound 1.265 µM,0.141
same,relative viability,UMC-11; first compound 4 µM,0.165
same,relative viability,NCI-H2085; first compound 0.04 µM,0.769
same,relative viability,NCI-H2085; first compound 0.1265 µM,0.601
same,relative viability,NCI-H2085; first compound 0.4 µM,0.639
same,relative viability,NCI-H2085; first compound 1.265 µM,0.474
same,relative viability,NCI-H2085; first compound 4 µM,0.398
same,relative viability,HCC-15; first compound 0.04 µM,0.804
same,relative viability,HCC-15; first compound 0.1265 µM,0.705
same,relative viability,HCC-15; first compound 0.4 µM,0.7
same,relative viability,HCC-15; first compound 1.265 µM,0.424
same,relative viability,HCC-15; first compound 4 µM,0.271
same,relative viability,HOP-62; first compound 0.04 µM,0.641
same,relative viability,HOP-62; first compound 0.1265 µM,0.553
same,relative viability,HOP-62; first compound 0.4 µM,0.305
same,relative viability,HOP-62; first compound 1.265 µM,0.12
same,relative viability,HOP-62; first compound 4 µM,0.0858
same,relative viability,EPLC-272H; first compound 0.04 µM,0.473
same,relative viability,EPLC-272H; first compound 0.1265 µM,0.391
same,relative viability,EPLC-272H; first compound 0.4 µM,0.274
same,relative viability,EPLC-272H; first compound 1.265 µM,0.175
same,relative viability,EPLC-272H; first compound 4 µM,0.206
same,relative viability,NCI-H441; first compound 0.04 µM,0.64
same,relative viability,NCI-H441; first compound 0.1265 µM,0.943
same,relative viability,NCI-H441; first compound 0.4 µM,0.886
same,relative viability,NCI-H441; first compound 1.265 µM,0.303
same,relative viability,NCI-H441; first compound 4 µM,0.199
same,relative viability,CAL-12T; first compound 0.04 µM,0.853
same,relative viability,CAL-12T; first compound 0.1265 µM,0.838
same,relative viability,CAL-12T; first compound 0.4 µM,0.685
same,relative viability,CAL-12T; first compound 1.265 µM,0.238
same,relative viability,CAL-12T; first compound 4 µM,0.217
same,relative viability,EMC-BAC-2; first compound 0.04 µM,0.423
same,relative viability,EMC-BAC-2; first compound 0.4 µM,0.367
same,relative viability,EMC-BAC-2; first compound 1.265 µM,0.281
same,relative viability,EMC-BAC-2; first compound 4 µM,0.237

# — the supplement of paper PMC10307832
